Laboratory results as given in patent US20230220331A1, “TEMPORARY TREATMENT MEDIUM, TREATMENT KIT, EMBRYOGENESIS ARREST INHIBITOR, EMBRYOGENESIS ARREST INHIBITORY METHOD, DEVELOPMENTAL ENGINEERING PRODUCT PREPARATION METHOD, TRANSPLANTATION METHOD, THERAPEUTIC METHOD, AND DEVELOPMENTAL ENGINEERING PRODUCT” (priority 2020, published 2023).

Legend:
[1] = test system: pig fertilized embryos that had undergone in vitro maturation and in vitro fertilization with frozen semen; assay: Development of electroporated pig IVM/IVF embryos (Treatment Example 5); format: cell-based
Protocol: 1. On the day before TAKE, 5 drops of Y-27632-added PZM-5 medium (Y-27632 final concentration 10 μM, an example of the “temporary treatment medium” of this example) was dropped on a 35 mm Petri dish to prepare a drop coated with paraffin oil. In the drop of this example, 20 μL of medium was added dropwise, 1 mL of oil was added, then 20 μL of medium was added again, and the mixture was completely covered with oil. This drop produced twice as many as the TAKE.
2. IVF was performed based on a method common to those skilled in the art.
3. On the day after fertilization, IVF embryos were placed in Y-27632-added PZM-5 medium and cultured for about 30 minutes to 1 hour (temporary treatment).
4. After that, TAKE was performed.
5. The embryos were returned to Y-27632-free PZM-5 medium (an example of the “normal medium” of this example) and cultured under the conditions of 39° C., 5% CO2, and 5% O2.
6. If necessary, sampling, or the like, was performed at the development stage. If the culture is to be continued until the blastocyst stage, the drops containing Y-27632-free PZM-5 medium and PBM medium was made in the same way as the step of “1.” at four days after insemination.
7. […]
In addition, the effect of the temporary treatment medium of this example was measured on pig fertilized embryos that had undergone in vitro maturation and in vitro fertilization with frozen semen.

[2] = test system: NOD-scid Bbox1, IL2RG double knock-out mice; assay: Passage efficiency of mice prepared by using Y-27632 (Treatment Example 20); format: in vivo, mouse
Description: The double knock-out mice of IL2RG gene and the Bbox1 gene by using the NOD-scid mice in the above-mentioned treatment example 14 were mated with each other, and it was examined whether or not the newborn mouse was affected by Y-27632.

[3] = test system: pronuclear stage embryos of inbred rats F344; assay: Generation of Flox inbred rats (individuals) by one-step method (Treatment Example 12); format: cell-based, rat; conditions: F344, floxed p53 1STEP, high concentration, many pulses
Protocol: The pronuclear stage embryos of inbred rats similar to those of Treatment Example 6 according to Example 1 were knocked in by an electroporation method (1STEP method) by using a high concentration ssODN, and further individual preparations were performed. As in the above-mentioned treatment example 6, insertion of the LoxP that was not knocked in at the normal ssODN concentration and the number of transfer pulses was performed with the same temporary treatment as in the above-mentioned Example 1. Specifically, before and after electroporation, 1 hour of the temporary treatment, 24 hours of culture in the normal medium (waiting period), and 1 hour of the temporary treatment were performed. This made it possible to double the concentration of ssODN and the number of electroporations and to knocked in. Further, when the concentration of Cas9 was increased 5 times, Flox inbred rats were obtained by one electroporation.

[4] = test system: frozen and thawed pronuclear stage and 2-cell stage embryos of rat Wistar-Imamichi; assay: Genome-edited individuals by frozen 1-2 cell TAKE of Wistar-Imamichi (Treatment Example 17); format: cell-based
Description: Next, knock-outs by TAKE were also produced in the pronuclear stage (1 cell) and the 2-cell stage (2 cells) […] of the frozen and thawed inbred rat Wistar-Imamichi. The conditions at this time were that the gRNA concentration was a specified amount (1 time), the pulse was 7 times, and the reduction rate was 40%.

[5] = test system: early embryos of immunodeficient mouse NOD-scid; assay: Genome editing efficiency of multiple targets (Treatment Example 19); format: cell-based; conditions: Bbox1, IL2RG, 4 target sites
Protocol: Electroporation (genome editing) of high-concentration RNA-protein mixed with CRISPR-Cas9 at multiple sites (4 sites in total) of a plurality of genes in early embryos of immunodeficient mice, which are extremely difficult to manipulate and prepare, was performed, transplanted into the recipient's uterus, and the offspring were obtained.

[6] = test system: frozen embryos of the inbred mouse B6J strain (blastocyst stage); assay: Surviving embryos after re-freezing and thawing of blastocysts (Treatment Example 9); format: cell-based
Protocol: Then, in the early embryos of the inbred mouse B6J strain, an example of using frozen embryos preserved at the blastocyst stage, using the normal medium or the temporary treatment medium according to the present embodiment before and after the manipulation, and comparing whether the occurrence changes is described. In this treatment example, as the temporary treatment medium, a Y-27632-added mWM medium so as to be 10 μM was used (in this example, it is referred to as “Y+ medium”). In addition, as the normal medium, an mWM medium to which Y-27632 was not added was used (In this example, it is referred to as “Y− medium”). As a treatment, the prepared frozen embryos were thawed and developed as they were in Y− medium until the blastocyst stage. Then, half of the embryos that had developed up to the blastocyst were transferred to Y+ medium and placed for 30 minutes. After that, the embryos were transferred to Y− medium again and placed for 30 minutes. Then, the embryos treated with Y+ medium and the embryos not treated were frozen in one tube, respectively. Both tubes of embryos were then thawed and placed in the normal medium for 10 minutes. Then, the embryos were evenly divided into Y+ medium and Y− medium, respectively, and placed for 1 hour. Then, again, each tube of embryos was returned to Y− medium in each tube and the embryos were observed. […]

[7] = NOG-Bbox1, generation F1, 3 pregnancies
[8] = NOG-Bbox1, generation F2, 8 pregnancies
[9] = Y+ before freezing and Y+ after thawing, 26 embryos
[10] = Y+ before freezing, Y− after thawing, 26 embryos
[11] = Y− before freezing, Y+ after thawing, 20 embryos

C[C@@H](N)[C@H]1CC[C@H](C(=O)Nc2ccncc2)CC1 [Y-27632, trans-4-[(1R)-1-Aminoethyl]-N-4-pyrid inylcyclohexanecarboxamide]
2-cell stage embryos developed into late blastocysts (proportion) [1]: 35 out of 123
ave. litter size ([2]; NOG-Bbox1, generation F1): (7.7/preg.)
Total pups [2, 7]: 23
female pups [2, 7]: 13
male pups [2, 7]: 10
ave. litter size ([2]; NOG-Bbox1, generation F2): (6.8/preg.)
Total pups [2, 8]: 54
female pups [2, 8]: 25
male pups [2, 8]: 29
effect on mouse passage and phenotype ([2]; offspring of mice produced with Y-27632 treated embryos): did not affect mouse passage and phenotype
NUMBER OF FLOX INDIVIDUALS / FLOX (2 SITES) ([3]; 92 transplanted embryos): 1/9
Flox individuals % ([3]; listed as +Y): 11%
Flox individuals % ([3]; listed as Y): 11.1%
NUMBER OF KO INDIVIDUALS (Large Deletion) ([4]; 37 TAKE embryos, 1 recipient): 2
NUMBER OF NEWBORNS ([4]; 37 TAKE embryos, 1 recipient, 1x gRNA, 7 pulses, 40% reduction rate): 8
KO rate (Large deletion) (%) ([4]; KO individuals / newborns analyzed): (25%)
KO % ([5]; 47 embryos transferred): 57%
Pups ([5]; 47 embryos transferred): 7
Pups (KO) ([5]; 47 embryos transferred): 4
KO % ([5]; 49 embryos transferred): 100%
Pups ([5]; 49 embryos transferred): 2 (2)
Pups (KO) ([5]; 49 embryos transferred): 2 (2)
NUMBER OF OUTGROWTH, 24 hours after thawing [6, 9]: (11)
surviving embryos 3 HOURS AND A HALF AFTER THAWING [6, 9]: 12
surviving embryos 24 HOURS AFTER THAWING [6, 9]: 24
surviving embryos IMMEDIENTLY AFTER THAWING [6, 9]: 7
RECOVERY RATE ([6]; Y+ before freezing and Y+ after thawing, 26 embryos, frozen twice, listed as Y+): 92%
RECOVERY RATE ([6]; Y+ before freezing and Y+ after thawing, 26 embryos, frozen twice, listed as Y+ medium): up to 92%
NUMBER OF OUTGROWTH, 24 hours after thawing [6, 10]: (7)
RECOVERY RATE [6, 10]: 70%
surviving embryos 3 HOURS AND A HALF AFTER THAWING [6, 10]: 11
surviving embryos 24 HOURS AFTER THAWING [6, 10]: 14
surviving embryos IMMEDIENTLY AFTER THAWING [6, 10]: 6
NUMBER OF OUTGROWTH, 24 hours after thawing [6, 11]: (3)
RECOVERY RATE [6, 11]: 55%
surviving embryos 3 HOURS AND A HALF AFTER THAWING [6, 11]: 5
surviving embryos 24 HOURS AFTER THAWING [6, 11]: 11
surviving embryos IMMEDIENTLY AFTER THAWING ([6]; Y− before freezing, Y+ after thawing, 20 embryos, Y-27632 10 μM): 3
